Where a SMILES comes first, the peptide text is derived from it. Bridges are numbered along the chain shown (N, C = ends). [ ]: non-standard residue; d: D form. The star is where a group is joined. hPhe(3-Cl-4-CF3) = N[C@@H](CCc1ccc(C(F)(F)F)c(Cl)c1)C(=O)O; NPrPhe(4-CF3) = CCCN[C@@H](Cc1ccc(C(F)(F)F)cc1)C(=O)O; NMeGly(cPent) = CN[C@H](C(=O)O)C1CCCC1; NMeChg = CN[C@H](C(=O)O)C1CCCCC1; NMeI = CC[C@H](C)[C@H](NC)C(=O)O; NMeD = CN[C@@H](CC(=O)O)C(=O)O; Ac4c(3-oxa) = NC1(C(=O)O)COC1; NMeL = CN[C@@H](CC(C)C)C(=O)O; NMeS = CN[C@@H](CO)C(=O)O; Morpholide = C1CN(*)CCO1; Piperidide = C1CCN(*)CC1; Ac5c = NC1(C(=O)O)CCCC1; Ac4c = NC1(C(=O)O)CCC1; Sar = CNCC(=O)O
Assays:
HRAS wild-type protein = HRAS wild-type protein (Homo sapiens, UniProt P01112); assay: Binding to HRAS by surface plasmon resonance (SPR), KD and KD ratio to KRAS; conditions: ratio of the KD value with respect to HRAS wild-type protein to the KD value with respect to KRAS
Summary of the method: (§1)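 Affinity is measured by surface plasmon resonance at 30°C against captured, GDP-loaded RAS carrying a biotinylated Avi tag. Compounds are titrated by single-cycle kinetics, and KD comes from a 1:1 fit.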

[1] = target: GDP-bound NRAS wild-type protein (Homo sapiens, UniProt P01111); assay: Binding to NRAS by surface plasmon resonance (SPR), KD and KD ratio to KRAS; conditions: ratio of the KD value with respect to GDP-bound NRAS wild-type protein to the KD value with respect to KRAS
Summary of the method: as §1

[2] = system: human lung cancer strain NCI-H441; assay type: cell-based
Summary of the method: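 Readout: […] after the ATP-based reagent. Compound: serial dilutions in dimethyl sulfoxide.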

Sequence of GDP-bound NRAS wild-type protein (P01111 whole entry): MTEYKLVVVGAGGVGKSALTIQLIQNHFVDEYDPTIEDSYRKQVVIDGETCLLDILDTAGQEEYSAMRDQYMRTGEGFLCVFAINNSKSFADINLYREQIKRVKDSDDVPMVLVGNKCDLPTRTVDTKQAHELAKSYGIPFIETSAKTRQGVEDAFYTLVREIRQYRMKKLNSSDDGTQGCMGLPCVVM
Sequence of HRAS wild-type protein (P01112 whole entry): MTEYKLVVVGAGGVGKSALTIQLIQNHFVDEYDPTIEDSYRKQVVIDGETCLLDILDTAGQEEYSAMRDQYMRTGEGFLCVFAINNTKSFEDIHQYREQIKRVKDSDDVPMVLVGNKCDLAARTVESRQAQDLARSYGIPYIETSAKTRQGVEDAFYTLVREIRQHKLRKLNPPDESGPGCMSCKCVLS

| SMILES | HRAS /KRAS (HRAS wild-type protein) | NRAS /KRAS [1] | IC50 [2] |
| --- | --- | --- | --- |
| CCO[C@@H]1C[C@H]2C(=O)NC3(CC(C)(C)C3)C(=O)N(C)[C@@H](C3CCCC3)C(=O)N(C)[C@H](C(=O)N(C)CC)CC(=O)N(C)[C@@H](CC(C)C)C(=O)N[C@@H]([C@@H](C)OCC)C(=O)N(C)CC(=O)N(C)[C@H]3C/C=C\CCN(C3=O)[C@@H](Cc3ccc(C(F)(F)F)cc3)C(=O)N(C)CC(=O)N[C@@H](CCc3cc(F)c(C(F)(F)F)c(F)c3)C(=O)N2C1 [PP1919] | A (a compound having 10 or more and less than 20 is denoted as A) | A (a compound having 10 or more and less than 20 is denoted as A) | 6.3 nM |
| CCCN1C(=O)CN(C)C(=O)CN(C)C(=O)[C@H]([C@@H](C)CC)NC(=O)[C@H](CC(C)C)N(C)C(=O)C[C@@H](C(=O)N2CCOCC2)N(C)C(=O)[C@H](C2CCCC2)N(C)C(=O)C2(CCCC2)NC(=O)[C@H](COC)N(C)C(=O)[C@H](CCc2ccc(C(F)(F)F)c(Cl)c2)NC(=O)CN(C)C(=O)[C@@H]1Cc1ccc(C(F)(F)F)cc1 [PP1920] ([NMeL]I[Sar][Sar][NPrPhe(4-CF3)][Sar][hPhe(3-Cl-4-CF3)][NMeS](Me)[Ac5c][NMeGly(cPent)][NMeD]-Morpholide; lactam N-11) | C (A compound having a KD ratio of 0.1 or more and less than 3 is denoted as C) | B (a compound having 3 or more and less than 10 is denoted as B) | 32.4 nM |
| CCCO[C@H](C)[C@@H]1NC(=O)[C@H](CC(C)C)N(C)C(=O)C[C@@H](C(=O)N(C)C)N(C)C(=O)[C@H](C2CCCC2)N(C)C(=O)C2(CC(C)(C)C2)NC(=O)[C@@H]2C[C@@H](OCC)CN2C(=O)[C@H](CCc2cc(F)c(C(F)(F)F)c(F)c2)NC(=O)CN(C)C(=O)[C@H](Cc2ccc(C(F)(F)F)cc2)N2CC/C=C\C[C@@H](C2=O)N(C)C(=O)CN(C)C1=O [PP1921] | A (a compound having 10 or more and less than 20 is denoted as A) | A (a compound having 10 or more and less than 20 is denoted as A) | 7.8 nM |
| CCCN1C(=O)CN(C)C(=O)CN(C)C(=O)[C@H]([C@@H](C)CC)NC(=O)[C@H](CC(C)C)N(C)C(=O)C[C@@H](C(=O)N2CCOCC2)N(C)C(=O)[C@H](C2CCCC2)N(C)C(=O)C2(COC2)NC(=O)[C@@H]2CCCN2C(=O)[C@H](CCc2ccc(C(F)(F)F)c(Cl)c2)NC(=O)CN(C)C(=O)[C@@H]1Cc1ccc(C(F)(F)F)cc1 [PP1922] ([NMeL]I[Sar][Sar][NPrPhe(4-CF3)][Sar][hPhe(3-Cl-4-CF3)]P[Ac4c(3-oxa)][NMeGly(cPent)][NMeD]-Morpholide; lactam N-11) | C (A compound having a KD ratio of 0.1 or more and less than 3 is denoted as C) | B (a compound having 3 or more and less than 10 is denoted as B) | 44.1 nM |
| CCCN(C)C(=O)[C@@H]1CC(=O)N(C)[C@@H](CC(C)C)C(=O)N[C@@H](C2CCOCC2)C(=O)N(C)CC(=O)N(C)[C@H]2C/C=C\CCN(C2=O)[C@@H](Cc2ccc(C(F)(F)F)cc2)C(=O)N(C)CC(=O)N[C@@H](CCc2cc(F)c(C(F)(F)F)c(F)c2)C(=O)N2C[C@H](OCC)C[C@H]2C(=O)NC2(CC(C)(C)C2)C(=O)N(C)[C@@H](C2CCCC2)C(=O)N1C [PP1923] | A (a compound having 10 or more and less than 20 is denoted as A) | A (a compound having 10 or more and less than 20 is denoted as A) | 68 nM |
| CCC[C@H]1C(=O)N[C@@H]([C@@H](C)CC)C(=O)N2CC[C@H]2C(=O)N(C)[C@H]2C/C=C\CCN(C2=O)[C@@H](Cc2ccc(C(F)(F)F)cc2)C(=O)N(C)CC(=O)N[C@@H](CCc2cc(F)c(C(F)(F)F)c(F)c2)C(=O)N2C[C@H](OCC)C[C@H]2C(=O)NC2(CC(C)(C)C2)C(=O)N(C)[C@@H](C2CCCC2)C(=O)N(C)[C@H](C(=O)N(C)C)CC(=O)N1C [PP1925] | A (a compound having 10 or more and less than 20 is denoted as A) | A (a compound having 10 or more and less than 20 is denoted as A) | 9.7 nM |
| CCCN1C(=O)CN(C)C(=O)CN(C)C(=O)[C@H]([C@@H](C)CC)NC(=O)[C@H](CC(C)C)N(C)C(=O)C[C@@H](C(=O)N2CCOCC2)N(C)C(=O)[C@H]([C@@H](C)CC)N(C)C(=O)C2(CCCC2)NC(=O)[C@@H]2CCCN2C(=O)[C@H](CCc2ccc(C(F)(F)F)c(Cl)c2)NC(=O)CN(C)C(=O)[C@@H]1Cc1ccc(C(F)(F)F)cc1 [PP1926] ([NMeL]I[Sar][Sar][NPrPhe(4-CF3)][Sar][hPhe(3-Cl-4-CF3)]P[Ac5c][NMeI][NMeD]-Morpholide; lactam N-11) | B (a compound having 3 or more and less than 10 is denoted as B) | B (a compound having 3 or more and less than 10 is denoted as B) | 17.4 nM |
| CCC[C@H]1C(=O)N[C@@H]([C@@H](C)CC)C(=O)N[C@@H](C)C(=O)N(C)[C@H]2C/C=C\CCN(C2=O)[C@@H](Cc2ccc(C(F)(F)F)cc2)C(=O)N(C)CC(=O)N[C@@H](CCc2cc(F)c(C(F)(F)F)c(F)c2)C(=O)N2C[C@H](OCC)C[C@H]2C(=O)NC2(CC(C)(C)C2)C(=O)N(C)[C@@H](C2CCCC2)C(=O)N(C)[C@H](C(=O)N(C)C)CC(=O)N1C [PP1927] | A (a compound having 10 or more and less than 20 is denoted as A) | A (a compound having 10 or more and less than 20 is denoted as A) | 23.5 nM |
| CCCN1C(=O)CN(C)C(=O)CN(C)C(=O)[C@H]([C@@H](C)CC)NC(=O)[C@H](CC(C)C)N(C)C(=O)C[C@@H](C(=O)N2CCOCC2)N(C)C(=O)[C@H](C2CCCCC2)N(C)C(=O)C2(CCC2)NC(=O)[C@@H]2CCCN2C(=O)[C@H](CCc2ccc(C(F)(F)F)c(Cl)c2)NC(=O)CN(C)C(=O)[C@@H]1Cc1ccc(C(F)(F)F)cc1 [PP1928] ([NMeL]I[Sar][Sar][NPrPhe(4-CF3)][Sar][hPhe(3-Cl-4-CF3)]P[Ac4c][NMeChg][NMeD]-Morpholide; lactam N-11) | B (a compound having 3 or more and less than 10 is denoted as B) | B (a compound having 3 or more and less than 10 is denoted as B) | 18.4 nM |
| CCCN1C(=O)CN(C)C(=O)CN(C)C(=O)[C@H]([C@@H](C)CC)NC(=O)[C@H](CC(C)C)N(C)C(=O)C[C@@H](C(=O)N2CCCCC2)N(C)C(=O)[C@H](C2CCCC2)N(C)C(=O)C2(CCC2)NC(=O)[C@@H]2CCCN2C(=O)[C@H](CCc2ccc(C(F)(F)F)c(Cl)c2)NC(=O)CN(C)C(=O)[C@@H]1Cc1ccc(C(F)(F)F)cc1 [PP1930] ([NMeL]I[Sar][Sar][NPrPhe(4-CF3)][Sar][hPhe(3-Cl-4-CF3)]P[Ac4c][NMeGly(cPent)][NMeD]-Piperidide; lactam N-11) | C (A compound having a KD ratio of 0.1 or more and less than 3 is denoted as C) | B (a compound having 3 or more and less than 10 is denoted as B) | 7 nM |
| CCO[C@@H]1C[C@H]2C(=O)NC3(CC(C)(C)C3)C(=O)N(C)[C@@H](C3CCCC3)C(=O)N(C)[C@H](C(=O)N(C)C)CC(=O)N(C)[C@@H](CC(C)C)C(=O)N[C@@H]([C@@H](C)CC)C(=O)N(C)CC(=O)N(C)[C@H]3C/C=C\CCN(C3=O)[C@@H](Cc3ccc(C(F)(F)F)cc3)C(=O)N(C)CC(=O)N[C@@H](CCc3ccc(C(F)(F)F)c(F)c3)C(=O)N2C1 [PP1931] | B (a compound having 3 or more and less than 10 is denoted as B) | A (a compound having 10 or more and less than 20 is denoted as A) | 9.5 nM |
| CCC[C@H]1C(=O)N[C@@H]([C@@H](C)CC)C(=O)N(C)CC(=O)N(C)[C@H]2C/C=C\CCN(C2=O)[C@@H](Cc2ccc(C(F)(F)F)cc2)C(=O)N(C)CC(=O)N[C@@H](CCc2ccc(Cl)c(Cl)c2)C(=O)N2C[C@H](OCC)C[C@H]2C(=O)NC2(CC(C)(C)C2)C(=O)N(C)[C@@H](C2CCCC2)C(=O)N(C)[C@H](C(=O)N(C)C)CC(=O)N1C [PP1932] | A (a compound having 10 or more and less than 20 is denoted as A) | A (a compound having 10 or more and less than 20 is denoted as A) | 13.1 nM |
| CCC[C@H]1C(=O)N[C@@H]([C@@H](C)CC)C(=O)N(C)CC(=O)N(C)[C@H]2C/C=C\CCN(C2=O)[C@@H](Cc2ccc(C(F)(F)F)cc2)C(=O)N(C)CC(=O)N[C@@H](CCc2cc(F)c(C(F)(F)F)c(F)c2)C(=O)N(C)[C@@H](C)C(=O)NC2(CC(C)(C)C2)C(=O)N(C)[C@@H](C2CCCC2)C(=O)N(C)[C@H](C(=O)N(C)C)CC(=O)N1C [PP1934] | A (a compound having 10 or more and less than 20 is denoted as A) | A (a compound having 10 or more and less than 20 is denoted as A) | 68.5 nM |
| CC[C@H](C)[C@@H]1NC(=O)[C@H](CC)N(C)C(=O)C[C@@H](C(=O)N(C)C)N(C)C(=O)[C@H](C2CCCC2)N(C)C(=O)C2(CC(C)(C)C2)NC(=O)[C@H](CC)N(C)C(=O)[C@H](CCc2cc(F)c(C(F)(F)F)c(F)c2)NC(=O)CN(C)C(=O)[C@H](Cc2ccc(C(F)(F)F)cc2)N2CC/C=C\C[C@@H](C2=O)N(C)C(=O)CN(C)C1=O [PP1935] | A (a compound having 10 or more and less than 20 is denoted as A) | A (a compound having 10 or more and less than 20 is denoted as A) | 13.1 nM |
| CCC[C@H]1C(=O)N[C@@H]([C@@H](C)CC)C(=O)N(C)CC(=O)N(C)[C@H]2C/C=C\CCN(C2=O)[C@@H](Cc2ccc(C(F)(F)F)cc2)C(=O)N(C)CC(=O)N[C@@H](CCc2cc(F)c(C(F)(F)F)c(F)c2)C(=O)N(C)[C@@H](COC)C(=O)NC2(CC(C)(C)C2)C(=O)N(C)[C@@H](C2CCCC2)C(=O)N(C)[C@H](C(=O)N(C)C)CC(=O)N1C [PP1936] | A (a compound having 10 or more and less than 20 is denoted as A) | AA (a compound having 20 or more is denoted as AA) | 12.3 nM |

— EP4603105A1, “PHARMACEUTICAL COMPOSITION CONTAINING CYCLIC COMPOUND HAVING SELECTIVE KRAS INHIBITORY EFFECT AGAINST HRAS AND NRAS” (CHUGAI SEIYAKU KABUSHIKI KAISHA, priority 2022, dated 2024)
